Reference: the NIST ThermoML archive (doi:10.1021/je900596d)
± gives the expanded uncertainty stated by the source.

Details: Vibrating tube method

FC(F)=C(F)C(F)(F)F [hexafluoropropene]
Details	mass density [kg/m3]
353.12 K, 2589.9 kPa, Fluid (supercritical or subcritical phases)	239.58 ± 0.55
353.12 K, 2605.1 kPa, Fluid (supercritical or subcritical phases)	243.48 ± 0.57
353.12 K, 2619.7 kPa, Fluid (supercritical or subcritical phases)	247.37 ± 0.59
353.12 K, 2635.2 kPa, Fluid (supercritical or subcritical phases)	251.52 ± 0.61
353.12 K, 2649.7 kPa, Fluid (supercritical or subcritical phases)	255.58 ± 0.65
353.12 K, 2670.4 kPa, Fluid (supercritical or subcritical phases)	261.98 ± 0.7
353.12 K, 2690 kPa, Fluid (supercritical or subcritical phases)	268.46 ± 0.75
353.12 K, 2702.3 kPa, Fluid (supercritical or subcritical phases)	272.91 ± 0.81
353.12 K, 2710.7 kPa, Fluid (supercritical or subcritical phases)	275.88 ± 0.82
353.12 K, 2718.3 kPa, Fluid (supercritical or subcritical phases)	278.85 ± 0.85
353.12 K, 2725 kPa, Fluid (supercritical or subcritical phases)	281.55 ± 0.89
353.12 K, 2731.2 kPa, Fluid (supercritical or subcritical phases)	284.3 ± 0.93
353.12 K, 2737.4 kPa, Fluid (supercritical or subcritical phases)	286.74 ± 0.95
353.12 K, 2744.8 kPa, Fluid (supercritical or subcritical phases)	290.14 ± 1
353.12 K, 2751.1 kPa, Fluid (supercritical or subcritical phases)	293.08 ± 1.1
353.12 K, 2757.6 kPa, Fluid (supercritical or subcritical phases)	296.25 ± 1.1
353.12 K, 2764.5 kPa, Fluid (supercritical or subcritical phases)	299.88 ± 1.1
353.12 K, 2771.7 kPa, Fluid (supercritical or subcritical phases)	303.81 ± 1.2
353.13 K, 2798.4 kPa, Liquid	887.06 ± 1.3
353.13 K, 2805.3 kPa, Liquid	888.96 ± 1.3
353.13 K, 2812.6 kPa, Liquid	890.6 ± 1.3
353.13 K, 2818.9 kPa, Liquid	891.84 ± 1.3
353.13 K, 2825.7 kPa, Liquid	893.67 ± 1.2
353.13 K, 2832.6 kPa, Liquid	894.71 ± 1.2
353.13 K, 2839.4 kPa, Liquid	896.74 ± 1.2
353.13 K, 2846 kPa, Liquid	898.09 ± 1.2
353.13 K, 2852.6 kPa, Liquid	899.46 ± 1.2
353.13 K, 2859.8 kPa, Liquid	900.81 ± 1.2
353.13 K, 2866.7 kPa, Liquid	902.11 ± 1.2
353.13 K, 2873.8 kPa, Liquid	903.63 ± 1.2
353.13 K, 2881 kPa, Liquid	904.67 ± 1.2
353.13 K, 2888.2 kPa, Liquid	906.06 ± 1.2
353.13 K, 2908.5 kPa, Liquid	909.29 ± 1.3
353.13 K, 2928.4 kPa, Liquid	912.84 ± 1.3
353.13 K, 2948.2 kPa, Liquid	915.77 ± 1.2
353.13 K, 2969.5 kPa, Liquid	918.7 ± 1.2
353.13 K, 2989.9 kPa, Liquid	921.51 ± 1.2
353.13 K, 3009.6 kPa, Liquid	924.14 ± 1.2
353.13 K, 3030.5 kPa, Liquid	926.96 ± 1.2
353.13 K, 3051.7 kPa, Liquid	929.82 ± 1.2
353.13 K, 3072.6 kPa, Liquid	932.36 ± 1.1
353.13 K, 3094.1 kPa, Liquid	935.03 ± 1.1
353.13 K, 3116.1 kPa, Liquid	937.73 ± 1.1
353.13 K, 3136.7 kPa, Liquid	940.03 ± 1.1
353.13 K, 3159.1 kPa, Liquid	942.35 ± 1.1
353.13 K, 3182.1 kPa, Liquid	944.69 ± 1.2
353.13 K, 3205.5 kPa, Liquid	946.93 ± 1.1
353.13 K, 3225.2 kPa, Liquid	948.79 ± 1.1
353.13 K, 3246.7 kPa, Liquid	950.79 ± 1.1
353.13 K, 3265.8 kPa, Liquid	952.67 ± 1.1
353.13 K, 3286.3 kPa, Liquid	954.54 ± 1.1
353.13 K, 3309.6 kPa, Liquid	956.7 ± 1.1
353.13 K, 3330.5 kPa, Liquid	958.57 ± 1.1
353.13 K, 3353 kPa, Liquid	960.43 ± 1.1
353.13 K, 3369.2 kPa, Liquid	961.77 ± 1.1
353.13 K, 3392.7 kPa, Liquid	963.71 ± 1.1
353.13 K, 3399 kPa, Liquid	964.17 ± 1.1
353.13 K, 3429.5 kPa, Liquid	966.86 ± 1.1
353.13 K, 3457.9 kPa, Liquid	969.07 ± 1.1
353.13 K, 3487.3 kPa, Liquid	971.26 ± 1.1
353.13 K, 3521.2 kPa, Liquid	973.81 ± 1.1
353.13 K, 3546.8 kPa, Liquid	975.65 ± 1.1
353.13 K, 3574.3 kPa, Liquid	977.54 ± 1.1
353.13 K, 3599.5 kPa, Liquid	979.42 ± 1.1
353.13 K, 3626.9 kPa, Liquid	981.32 ± 1.1
353.13 K, 3653.9 kPa, Liquid	982.94 ± 1.1
353.13 K, 3680.4 kPa, Liquid	984.8 ± 1.1
353.13 K, 3736 kPa, Liquid	988.5 ± 1.1
353.13 K, 3763.9 kPa, Liquid	990.13 ± 1.1
353.13 K, 3788.8 kPa, Liquid	991.7 ± 1.1
353.13 K, 3815.8 kPa, Liquid	993.28 ± 1.1
353.13 K, 3840.7 kPa, Liquid	994.81 ± 1.1
353.13 K, 3865.5 kPa, Liquid	996.26 ± 1.1
353.13 K, 3891.9 kPa, Liquid	997.74 ± 1.1
353.13 K, 3918.8 kPa, Liquid	999.3 ± 1.1
353.13 K, 3943.7 kPa, Liquid	1000.71 ± 1.1
353.13 K, 3971.8 kPa, Liquid	1002.02 ± 1.1
353.13 K, 3985.4 kPa, Liquid	1002.96 ± 1.1
353.13 K, 4027.5 kPa, Liquid	1005.16 ± 1.1
353.13 K, 4066.7 kPa, Liquid	1007.14 ± 1.1
353.13 K, 4105.8 kPa, Liquid	1009.21 ± 1.1
353.13 K, 4146.8 kPa, Liquid	1011.34 ± 1.1
353.13 K, 4185.8 kPa, Liquid	1013.28 ± 1.1
353.13 K, 4216 kPa, Liquid	1014.76 ± 1.1
353.13 K, 4257.8 kPa, Liquid	1016.64 ± 1.1
353.13 K, 4298.4 kPa, Liquid	1018.66 ± 1.1
353.13 K, 4335.1 kPa, Liquid	1020.3 ± 1.1
353.13 K, 4374.3 kPa, Liquid	1022.01 ± 1.1
353.13 K, 4415.3 kPa, Liquid	1023.76 ± 1.1
353.13 K, 4454.8 kPa, Liquid	1025.55 ± 1.1
353.13 K, 4494.4 kPa, Liquid	1027.22 ± 1.1
353.13 K, 4534 kPa, Liquid	1028.89 ± 1.1
353.13 K, 4574.1 kPa, Liquid	1030.62 ± 1.1
353.13 K, 4611.4 kPa, Liquid	1032.18 ± 1.1
353.13 K, 4650.8 kPa, Liquid	1033.77 ± 1.1
353.13 K, 4692 kPa, Liquid	1035.33 ± 1.1
353.13 K, 4731.2 kPa, Liquid	1036.88 ± 1.1
353.13 K, 4772.4 kPa, Liquid	1038.52 ± 1.1
353.13 K, 4813.3 kPa, Liquid	1040.05 ± 1.1
353.13 K, 4854.9 kPa, Liquid	1041.63 ± 1.1
353.13 K, 4892.5 kPa, Liquid	1043.01 ± 1.1
353.13 K, 4933.3 kPa, Liquid	1044.53 ± 1.1
353.13 K, 4970.7 kPa, Liquid	1045.82 ± 1.1
353.13 K, 5012.1 kPa, Liquid	1047.29 ± 1.1
353.13 K, 5052.5 kPa, Liquid	1048.76 ± 1.1
353.13 K, 5091.9 kPa, Liquid	1050.11 ± 1.1
353.13 K, 5130 kPa, Liquid	1051.53 ± 1.1
353.13 K, 5169.1 kPa, Liquid	1052.89 ± 1.1
353.13 K, 5208.1 kPa, Liquid	1054.11 ± 1.1
353.13 K, 5247 kPa, Liquid	1055.36 ± 1.1
353.13 K, 5287.6 kPa, Liquid	1056.62 ± 1.1
353.13 K, 5325.3 kPa, Liquid	1057.82 ± 1.1
353.13 K, 5365.1 kPa, Liquid	1059.19 ± 1.1
353.13 K, 5403.1 kPa, Liquid	1060.48 ± 1.1
353.13 K, 5442.6 kPa, Liquid	1061.62 ± 1.1
353.13 K, 5480.8 kPa, Liquid	1062.93 ± 1.1
353.13 K, 5559.8 kPa, Liquid	1065.32 ± 1.1
353.13 K, 5597.5 kPa, Liquid	1066.51 ± 1.1
353.13 K, 5634.9 kPa, Liquid	1067.6 ± 1.1
353.13 K, 5673 kPa, Liquid	1068.78 ± 1.1
353.13 K, 5711.7 kPa, Liquid	1069.91 ± 1.1
353.13 K, 5751 kPa, Liquid	1071.01 ± 1.1
353.13 K, 5788.5 kPa, Liquid	1072.12 ± 1.1
353.13 K, 5826.7 kPa, Liquid	1073.17 ± 1.1
353.13 K, 5865.4 kPa, Liquid	1074.15 ± 1.1
353.13 K, 5902.7 kPa, Liquid	1075.33 ± 1.1
353.13 K, 5941.8 kPa, Liquid	1076.43 ± 1.1
353.13 K, 5981.5 kPa, Liquid	1077.54 ± 1.1
353.13 K, 6019.6 kPa, Liquid	1078.56 ± 1.1
353.13 K, 6060.4 kPa, Liquid	1079.62 ± 1.1
353.13 K, 6101 kPa, Liquid	1080.65 ± 1.1
353.13 K, 6140.3 kPa, Liquid	1081.81 ± 1.1
353.13 K, 6177.9 kPa, Liquid	1082.78 ± 1.1
353.13 K, 6216.7 kPa, Liquid	1083.8 ± 1.1
